{"source": "patent US12360023B2", "about": "“Method of pretreating blood sample” (LABTECHS Inc., priority 2017, dated 2025)", "system": "Streptococcus agalactiae", "experiment": "Viability of bacteria under detergent treatment", "assay_type": "cell-based", "data": [{"smiles": "CCCCCCCCCCCCOS(=O)(=O)[O-].[Na+]", "note": "[SDS, sodium dodecyl sulfate]", "values": [{"measurement": "killing of bacteria by detergent", "setting": "SDS concentration 0.05%", "result": "does not kill"}, {"measurement": "killing of bacteria by detergent", "setting": "SDS concentration 0.1% or 0.2%", "result": "largely killed"}]}]}
